Assays:
Type in all cases: in vivo
[1] = system: morningglory (Ipomoea spp.); assay: Test A pre-/postemergence plant response
How it was run: (§1)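 Injury was scored visually after roughly ten days against untreated controls, 0 = no effect, 100 = complete control. Test chemicals in a surfactant-containing non-phytotoxic solvent were sprayed either onto soil preemergence or onto one- to two-leaf, 2–10 cm plants postemergence.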

[2] = system: velvetleaf (Abutilon theophrasti); assay: Test A pre-/postemergence plant response
How it was run: as §1

[3] = system: wheat (Triticum aestivum); assay: Test A pre-/postemergence plant response
How it was run: as §1

[4] = system: large crabgrass (Digitaria sanguinalis); assay: Test A pre-/postemergence plant response
How it was run: as §1

[5] = system: morningglory (Ipomoea coccinea); assay: Test B pre-/postemergence plant response; settings: for Morningglory plant response rating (0 to 100 scale): 62 g ai/ha, postemergence, 0 is no effect, 100 is complete control; for Plant response rating, Morningglory: Postemergence
How it was run: (§2)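 Response scores were assigned visually after 13 to 15 days in a greenhouse, comparing treated pots with controls on a 0–100 scale where 100 denotes complete control. Preemergence treatments went onto freshly seeded loam/sand soil; postemergence treatments onto plants 2 to 18 cm tall.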

[6] = system: downy bromegrass (Bromus tectorum); assay: Test B pre-/postemergence plant response; settings: for Bromegrass, Downy plant response rating (0 to 100 scale): 62 g ai/ha, postemergence, 0 is no effect, 100 is complete control; for Plant response rating, Bromegrass, Downy: Postemergence
How it was run: as §2

[7] = system: kochia (Kochia scoparia); assay: Test B pre-/postemergence plant response; settings: for Kochia plant response rating (0 to 100 scale): 62 g ai/ha, postemergence, 0 is no effect, 100 is complete control; for Plant response rating, Kochia: Postemergence
How it was run: as §2

[8] = system: green foxtail (Setaria viridis); assay: Test B pre-/postemergence plant response; settings: for Foxtail, Green plant response rating (0 to 100 scale): 62 g ai/ha, postemergence, 0 is no effect, 100 is complete control; for Plant response rating, Foxtail, Green: Postemergence
How it was run: as §2

[9] = system: wheat (Triticum aestivum); assay: Test B pre-/postemergence plant response; settings: for Wheat plant response rating (0 to 100 scale): 62 g ai/ha, postemergence, 0 is no effect, 100 is complete control; for Plant response rating, Wheat: Postemergence
How it was run: as §2

[10] = system: pigweed (Amaranthus retroflexus); assay: Test B pre-/postemergence plant response; settings: for Pigweed plant response rating (0 to 100 scale): 62 g ai/ha, postemergence, 0 is no effect, 100 is complete control; for Plant response rating, Pigweed: Postemergence
How it was run: as §2

[11] = system: goosegrass (Eleusine indica); assay: Test B pre-/postemergence plant response; settings: for Goosegrass plant response rating (0 to 100 scale): 62 g ai/ha, postemergence, 0 is no effect, 100 is complete control; for Plant response rating, Goosegrass: Postemergence
How it was run: as §2

[12] = system: giant foxtail (Setaria faberii); assay: Test B pre-/postemergence plant response; settings: for Foxtail, Giant plant response rating (0 to 100 scale): 62 g ai/ha, postemergence, 0 is no effect, 100 is complete control; for Plant response rating, Foxtail, Giant: Postemergence
How it was run: as §2

[13] = system: cocklebur (Xanthium strumarium); assay: Test B pre-/postemergence plant response; settings: for Cocklebur plant response rating (0 to 100 scale): 62 g ai/ha, postemergence, 0 is no effect, 100 is complete control; for Plant response rating, Cocklebur: Postemergence
How it was run: as §2

[14] = Postemergence, 125 g ai/ha, 0 to 100 scale where 0 is no effect and 100 is complete control
[15] = Postemergence, 500 g ai/ha, 0 to 100 scale, 0 = no effect, 100 = complete control, approx. ten days
[16] = Preemergence, 500 g ai/ha, visual injury, 0 to 100 scale (0 no effect, 100 complete control), approx. ten days
[17] = Preemergence, 125 g ai/ha, 0 to 100 scale, 0 = no effect, 100 = complete control
[18] = 31 g ai/ha, 0 to 100 scale (0 no effect, 100 complete control)
[19] = 125 g ai/ha, scale 0 to 100 (0 no effect, 100 complete control)
[20] = 250 g ai/ha, scale 0 to 100 (0 no effect, 100 complete control), 13 to 15 days

## O=C1CCCC(O)=C1C(=O)c1cnc(-c2ccccc2)n(C2CCOCC2)c1=O [Compound 129]
[1]; [14]
  Plant response rating, Morningglory: 100
[1]; [15]
  Plant response rating, Morningglory: 100
[1]; [16]
  Plant response rating, Morningglory: 90
[2]; [14]
  Plant response rating, Velvetleaf: 100
[2]; [15]
  Plant response rating, Velvetleaf: 100
[2]; [17]
  Plant response rating, Velvetleaf: 80
[2]; [16]
  Plant response rating, Velvetleaf: 90
[3]; [14]
  Plant response rating, Wheat: 0
[3]; [15]
  Plant response rating, Wheat: 20
[3]; [17]
  Plant response rating, Wheat: 0
[3]; [16]
  Plant response rating, Wheat: 0
[4]; [14]
  Plant response rating, Crabgrass, Large: 90
[4]; [15]
  Plant response rating, Crabgrass, Large: 90
[4]; [17]
  Plant response rating, Crabgrass, Large: 70
[4]; [16]
  Plant response rating, Crabgrass, Large: 90
[5]; 13 to 15 days
  Morningglory plant response rating (0 to 100 scale): 90
[5]; [18]
  Plant response rating, Morningglory: 90
[5]; [19]
  Plant response rating, Morningglory: 90
[5]; [20]
  Plant response rating, Morningglory: 90
[6]; 13 to 15 days
  Bromegrass, Downy plant response rating (0 to 100 scale): 10
[6]; [18]
  Plant response rating, Bromegrass, Downy: 5
[6]; [19]
  Plant response rating, Bromegrass, Downy: 15
[6]; [20]
  Plant response rating, Bromegrass, Downy: 35
[7]; 13 to 15 days
  Kochia plant response rating (0 to 100 scale): 95
[7]; [18]
  Plant response rating, Kochia: 80
[7]; [19]
  Plant response rating, Kochia: 95
[7]; [20]
  Plant response rating, Kochia: 98
[8]; 13 to 15 days
  Foxtail, Green plant response rating (0 to 100 scale): 90
[8]; [18]
  Plant response rating, Foxtail, Green: 80
[8]; [19]
  Plant response rating, Foxtail, Green: 90
[8]; [20]
  Plant response rating, Foxtail, Green: 95
[9]; 13 to 15 days
  Wheat plant response rating (0 to 100 scale): 0
[9]; [18]
  Plant response rating, Wheat: 0
[9]; [19]
  Plant response rating, Wheat: 0
[9]; [20]
  Plant response rating, Wheat: 0
[10]; 13 to 15 days
  Pigweed plant response rating (0 to 100 scale): 95
[10]; [18]
  Plant response rating, Pigweed: 85
[10]; [19]
  Plant response rating, Pigweed: 98
[10]; [20]
  Plant response rating, Pigweed: 98
[11]; 13 to 15 days
  Goosegrass plant response rating (0 to 100 scale): 85
[11]; [18]
  Plant response rating, Goosegrass: 85
[11]; [19]
  Plant response rating, Goosegrass: 90
[11]; [20]
  Plant response rating, Goosegrass: 95
[12]; 13 to 15 days
  Foxtail, Giant plant response rating (0 to 100 scale): 85
[12]; [18]
  Plant response rating, Foxtail, Giant: 70
[12]; [19]
  Plant response rating, Foxtail, Giant: 90
[12]; [20]
  Plant response rating, Foxtail, Giant: 98
[13]; 13 to 15 days
  Cocklebur plant response rating (0 to 100 scale): 98
[13]; [18]
  Plant response rating, Cocklebur: 95
[13]; [19]
  Plant response rating, Cocklebur: 98
[13]; [20]
  Plant response rating, Cocklebur: 100

## O=C1CCCC(O)=C1C(=O)c1cnc(-c2ccccc2)n(C2CCCCCC2)c1=O [Compound 130]
[1]; [14]
  Plant response rating, Morningglory: 100
[1]; [15]
  Plant response rating, Morningglory: 100
[1]; [17]
  Plant response rating, Morningglory: 10
[1]; [16]
  Plant response rating, Morningglory: 80
[2]; [14]
  Plant response rating, Velvetleaf: 100
[2]; [15]
  Plant response rating, Velvetleaf: 100
[2]; [17]
  Plant response rating, Velvetleaf: 80
[2]; [16]
  Plant response rating, Velvetleaf: 90
[3]; [14]
  Plant response rating, Wheat: 0
[3]; [15]
  Plant response rating, Wheat: 30
[3]; [17]
  Plant response rating, Wheat: 0
[3]; [16]
  Plant response rating, Wheat: 0
[4]; [14]
  Plant response rating, Crabgrass, Large: 70
[4]; [15]
  Plant response rating, Crabgrass, Large: 100
[4]; [17]
  Plant response rating, Crabgrass, Large: 40
[4]; [16]
  Plant response rating, Crabgrass, Large: 100
[5]; 13 to 15 days
  Morningglory plant response rating (0 to 100 scale): 95
[5]; [18]
  Plant response rating, Morningglory: 95
[5]; [19]
  Plant response rating, Morningglory: 100
[5]; [20]
  Plant response rating, Morningglory: 100
[6]; 13 to 15 days
  Bromegrass, Downy plant response rating (0 to 100 scale): 15
[6]; [18]
  Plant response rating, Bromegrass, Downy: 10
[6]; [19]
  Plant response rating, Bromegrass, Downy: 35
[6]; [20]
  Plant response rating, Bromegrass, Downy: 40
[7]; 13 to 15 days
  Kochia plant response rating (0 to 100 scale): 85
[7]; [18]
  Plant response rating, Kochia: 85
[7]; [19]
  Plant response rating, Kochia: 100
[7]; [20]
  Plant response rating, Kochia: 100
[8]; 13 to 15 days
  Foxtail, Green plant response rating (0 to 100 scale): 90
[8]; [18]
  Plant response rating, Foxtail, Green: 90
[8]; [19]
  Plant response rating, Foxtail, Green: 95
[8]; [20]
  Plant response rating, Foxtail, Green: 98
[9]; 13 to 15 days
  Wheat plant response rating (0 to 100 scale): 5
[9]; [18]
  Plant response rating, Wheat: 5
[9]; [19]
  Plant response rating, Wheat: 5
[9]; [20]
  Plant response rating, Wheat: 10
[10]; 13 to 15 days
  Pigweed plant response rating (0 to 100 scale): 98
[10]; [18]
  Plant response rating, Pigweed: 95
[10]; [19]
  Plant response rating, Pigweed: 100
[10]; [20]
  Plant response rating, Pigweed: 100
[11]; 13 to 15 days
  Goosegrass plant response rating (0 to 100 scale): 85
[11]; [18]
  Plant response rating, Goosegrass: 85
[11]; [19]
  Plant response rating, Goosegrass: 95
[11]; [20]
  Plant response rating, Goosegrass: 95
[12]; 13 to 15 days
  Foxtail, Giant plant response rating (0 to 100 scale): 90
[12]; [18]
  Plant response rating, Foxtail, Giant: 90
[12]; [19]
  Plant response rating, Foxtail, Giant: 98
[12]; [20]
  Plant response rating, Foxtail, Giant: 98
[13]; 13 to 15 days
  Cocklebur plant response rating (0 to 100 scale): 95
[13]; [18]
  Plant response rating, Cocklebur: 85
[13]; [19]
  Plant response rating, Cocklebur: 95
[13]; [20]
  Plant response rating, Cocklebur: 100

Reference: patent US8952024B2, “Herbicidal pyrimidone derivatives” (E I du Pont de Nemours and Company, priority 2009, dated 2015)
